Measurements as given in patent US12139487B2, “Compounds and uses thereof” (Foghorn Therapeutics Inc., priority 2022, dated 2024).

Key:
BRM = target: T1, BRM (Homo sapiens, UniProt P51531); experiment: ATPase catalytic activity assay (ADP-Glo), BRM; format: biochemical; conditions: Table 10; for Ratio (BRG1 IC50 (μM) divided by BRM IC50 (μM)): ATPase assay, selectivity BRG1/BRM; for IC50: ATPase catalytic activity assay (ADP-Glo)
T1 construct: made in house; host or cells: High Five insect cells
T1 sequence (P51531 whole entry): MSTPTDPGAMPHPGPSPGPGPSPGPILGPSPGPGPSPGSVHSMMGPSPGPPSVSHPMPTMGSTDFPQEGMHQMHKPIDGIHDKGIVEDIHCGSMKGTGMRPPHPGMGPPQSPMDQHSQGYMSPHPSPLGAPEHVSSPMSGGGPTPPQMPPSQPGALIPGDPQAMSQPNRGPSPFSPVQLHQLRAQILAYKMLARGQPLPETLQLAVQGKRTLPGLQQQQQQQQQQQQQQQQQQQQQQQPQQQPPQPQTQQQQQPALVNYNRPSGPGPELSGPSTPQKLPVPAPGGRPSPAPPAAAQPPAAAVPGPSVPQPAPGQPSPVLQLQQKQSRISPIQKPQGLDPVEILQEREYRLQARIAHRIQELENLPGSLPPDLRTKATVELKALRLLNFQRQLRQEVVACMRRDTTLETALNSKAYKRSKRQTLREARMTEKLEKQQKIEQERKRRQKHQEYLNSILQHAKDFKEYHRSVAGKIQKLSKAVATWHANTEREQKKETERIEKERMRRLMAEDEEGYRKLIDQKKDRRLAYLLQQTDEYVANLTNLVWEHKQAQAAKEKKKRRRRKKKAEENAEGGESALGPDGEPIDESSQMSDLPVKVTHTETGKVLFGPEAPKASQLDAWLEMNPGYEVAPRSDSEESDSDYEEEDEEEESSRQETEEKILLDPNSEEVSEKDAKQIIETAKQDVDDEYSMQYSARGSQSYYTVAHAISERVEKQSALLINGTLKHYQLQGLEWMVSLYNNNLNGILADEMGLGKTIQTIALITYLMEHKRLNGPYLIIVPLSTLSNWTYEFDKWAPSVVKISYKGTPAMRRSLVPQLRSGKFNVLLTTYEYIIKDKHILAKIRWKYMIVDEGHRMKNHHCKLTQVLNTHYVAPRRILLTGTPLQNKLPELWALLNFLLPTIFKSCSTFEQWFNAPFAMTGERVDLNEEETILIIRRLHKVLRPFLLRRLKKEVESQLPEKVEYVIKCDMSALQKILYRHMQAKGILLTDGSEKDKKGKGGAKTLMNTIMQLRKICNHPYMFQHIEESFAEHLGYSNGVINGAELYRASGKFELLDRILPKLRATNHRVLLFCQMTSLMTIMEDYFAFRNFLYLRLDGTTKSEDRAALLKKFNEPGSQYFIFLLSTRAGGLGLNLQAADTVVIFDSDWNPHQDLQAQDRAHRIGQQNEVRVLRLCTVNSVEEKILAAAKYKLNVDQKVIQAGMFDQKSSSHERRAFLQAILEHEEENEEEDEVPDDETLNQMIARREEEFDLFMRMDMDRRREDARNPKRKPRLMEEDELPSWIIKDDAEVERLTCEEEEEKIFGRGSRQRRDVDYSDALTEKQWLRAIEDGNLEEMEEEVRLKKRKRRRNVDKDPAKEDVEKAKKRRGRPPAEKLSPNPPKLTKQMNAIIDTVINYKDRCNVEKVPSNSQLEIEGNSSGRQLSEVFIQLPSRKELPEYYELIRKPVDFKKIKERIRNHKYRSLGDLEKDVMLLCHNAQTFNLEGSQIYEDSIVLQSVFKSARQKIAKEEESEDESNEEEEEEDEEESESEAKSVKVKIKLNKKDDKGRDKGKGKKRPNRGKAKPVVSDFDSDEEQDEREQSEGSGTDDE
How it was run: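 Reaction holds 30 nM BRM, 20 nM salmon sperm DNA and 400 μM ATP in 20 mM Tris pH 8, 20 mM MgCl2, 50 mM NaCl, 0.1% Tween-20, 1 mM DTT. Incubated 1 h at room temperature. ADP formed is detected by ADP-Glo luminescence.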

BRG-1 = target: T2, BRG-1 (Homo sapiens, UniProt P51532); experiment: ATPase catalytic activity assay (ADP-Glo), BRG-1; format: biochemical; conditions: Table 10, read-out: BRG1 IC50
T2 construct: made in house; host or cells: High Five insect cells
T2 sequence (P51532 whole entry): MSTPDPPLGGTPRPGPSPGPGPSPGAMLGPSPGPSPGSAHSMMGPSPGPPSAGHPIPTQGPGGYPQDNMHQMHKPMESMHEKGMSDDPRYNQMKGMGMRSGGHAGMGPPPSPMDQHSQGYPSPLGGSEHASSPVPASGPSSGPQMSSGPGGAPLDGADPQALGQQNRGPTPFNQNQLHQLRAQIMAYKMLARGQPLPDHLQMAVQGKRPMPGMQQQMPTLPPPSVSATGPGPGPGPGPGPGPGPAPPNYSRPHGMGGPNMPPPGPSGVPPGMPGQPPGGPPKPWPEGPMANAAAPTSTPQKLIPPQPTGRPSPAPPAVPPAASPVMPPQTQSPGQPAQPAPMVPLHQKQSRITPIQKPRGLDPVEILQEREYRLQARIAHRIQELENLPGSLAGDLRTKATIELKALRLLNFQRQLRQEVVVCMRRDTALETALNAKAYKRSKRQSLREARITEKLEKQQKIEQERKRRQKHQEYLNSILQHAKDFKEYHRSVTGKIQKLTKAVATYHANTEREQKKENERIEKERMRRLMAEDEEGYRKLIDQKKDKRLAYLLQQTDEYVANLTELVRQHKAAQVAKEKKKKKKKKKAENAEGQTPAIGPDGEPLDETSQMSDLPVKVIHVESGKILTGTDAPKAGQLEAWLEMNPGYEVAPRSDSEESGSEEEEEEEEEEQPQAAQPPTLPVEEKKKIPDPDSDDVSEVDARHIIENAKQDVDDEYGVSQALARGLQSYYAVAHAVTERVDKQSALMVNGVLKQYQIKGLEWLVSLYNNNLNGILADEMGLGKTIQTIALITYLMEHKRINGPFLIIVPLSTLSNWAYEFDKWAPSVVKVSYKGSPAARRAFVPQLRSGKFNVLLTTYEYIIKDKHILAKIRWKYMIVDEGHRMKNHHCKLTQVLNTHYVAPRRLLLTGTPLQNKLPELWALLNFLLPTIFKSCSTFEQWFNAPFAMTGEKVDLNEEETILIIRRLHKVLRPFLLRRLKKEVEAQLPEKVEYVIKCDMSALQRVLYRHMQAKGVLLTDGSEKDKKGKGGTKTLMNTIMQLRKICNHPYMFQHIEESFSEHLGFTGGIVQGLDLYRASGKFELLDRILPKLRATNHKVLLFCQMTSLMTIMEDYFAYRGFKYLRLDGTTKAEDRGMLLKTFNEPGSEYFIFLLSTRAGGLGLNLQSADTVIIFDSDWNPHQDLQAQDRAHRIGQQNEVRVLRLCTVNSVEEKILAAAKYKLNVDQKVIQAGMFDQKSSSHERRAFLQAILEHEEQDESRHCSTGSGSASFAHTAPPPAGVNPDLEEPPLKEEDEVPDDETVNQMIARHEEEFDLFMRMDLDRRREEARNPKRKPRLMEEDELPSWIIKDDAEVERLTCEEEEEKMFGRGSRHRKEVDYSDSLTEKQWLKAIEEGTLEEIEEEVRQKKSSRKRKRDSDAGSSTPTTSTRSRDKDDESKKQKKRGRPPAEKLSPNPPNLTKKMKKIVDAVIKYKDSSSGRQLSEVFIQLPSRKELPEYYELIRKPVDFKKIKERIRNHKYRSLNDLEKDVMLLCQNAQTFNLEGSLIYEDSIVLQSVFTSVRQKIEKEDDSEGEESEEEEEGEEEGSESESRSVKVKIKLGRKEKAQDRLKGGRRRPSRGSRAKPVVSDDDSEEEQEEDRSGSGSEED
Description: The ATPase catalytic activity of BRM or BRG-1 was measured by an in vitro biochemical assay using ADP-Glo™ (Promega, V9102). The ADP-Glo™ kinase assay is performed in two steps once the reaction is complete. The first step is to deplete any unconsumed ATP in the reaction. The second step is to convert the reaction product ADP to ATP, which will be utilized by the luciferase to generate luminesce and be detected by a luminescence reader, such as Envision.
Then, following addition of 5 μL of ADP-Glo™ Reagent provided in the kit, the reaction incubates at room temperature for 40 minutes. Then, 10 μL of Kinase Detection Reagent provided in the kit is added to convert ADP to ATP, and the reaction incubates at room temperature for 60 minutes. Finally, luminescence measurement is collected with a plate-reading luminometer, such as Envision.

Row | SMILES | Ratio (BRG1 IC50 (μM) divided by BRM IC50 (μM)) (BRM) | IC50 (BRM) | IC50 (BRG-1)
1 | COCc1cc2c(c(F)c1Cl)N(c1ccc3cnc(CNC(=O)c4cc(F)c5c(c4)S(=O)(=O)[C@@H](F)CCO5)cc3n1)CCO2 [Compound 10] | 11.90 | 1.3 nM | 15.7 nM
2 | CC#Cc1cnc2c(c1)OCCN2c1ccc2cnc(CNC(=O)c3cc(F)c4c(c3)S(=O)(=O)[C@@H](F)COC4)cc2n1 [Compound 239] | 12.22 | 7.6 nM | 93.2 nM
3 | COc1cnc2c(c1)OCCN2c1ccc2cnc(CNC(=O)c3cc(F)c4c(c3)S(=O)(=O)[C@@H](F)CCO4)cc2c1 [Compound 153] | 13.92 | 5 nM | 69.5 nM
4 | O=C(NCc1cc2nc(N3CCOc4ccc([C@H](F)CF)nc43)ccc2cn1)c1cc(F)c2c(c1)S(=O)(=O)[C@@H](F)CCO2 [Compound 279] | 18.19 | 9.2 nM | 164 nM
5 | O=C(NCc1cc2nc(N3CCCc4cc(N5CCOCC5)cnc43)ccc2cn1)c1cc(F)c2c(c1)S(=O)(=O)[C@@H](F)CCO2 [Compound 172] | 13.09 | 5.5 nM | 74.1 nM
6 | O=C(NCc1cc2nc(-c3cccc([C@@H]4CC4(F)F)n3)ccc2cn1)c1cc(F)c2c(c1)S(=O)(=O)[C@@H](F)COC2 [Compound 253] | 22.99 | 8 nM | 171 nM
7 | C[C@@H]1CN(c2cccc(-c3ccc4cnc(CNC(=O)c5cc(F)c6c(c5)S(=O)(=O)[C@H](F)C[C@H](C)O6)cc4n3)n2)C[C@H](C)O1 [Compound 34, (2S,4S)—N-((2-(6-((2S,6R)-2,6-dimethylmorpholino)pyridin-2-yl)-1,6-naphthyridin-7-yl)methyl)-4,9-difluoro-2-methyl-3,4-dihydro-2H-benzo[b][1,4]oxathiepine-7-carboxamide 5,5-dioxide] | 12.17 | 120 nM | 1470 nM
8 | C[C@@H]1CN(c2cnc3c(c2)OCCN3c2ccc3cnc(CNC(=O)c4cc(F)c5c(c4)S(=O)(=O)[C@@H](F)CCO5)cc3n2)C[C@@H]1F [Compound 284] | 11.05 | 9.5 nM | 105 nM
9 | O=C(NCc1cc(C#Cc2cccc(OC(F)F)n2)ccn1)c1cc(F)c2c(c1)S(=O)(=O)[C@@H](F)COC2 [Compound 184, (R)—N-((4-((6-(difluoromethoxy)pyridin-2-yl)ethynyl)pyridin-2-yl)methyl)-2,6-difluoro-3,5-dihydro-2H-benzo[e][1,4]oxathiepine-8-carboxamide 1,1-dioxide] | 23.91 | 143 nM | 3420 nM
10 | C[C@H](NC(=O)c1cc(F)c2c(c1)S(=O)(=O)[C@@H](F)COC2)c1cc2nc(N3CCOc4ccc(C(F)F)nc43)ccc2cn1 [Compound 260] | 34.05 | 8.5 nM | 288 nM
11 | C[C@H](F)c1cnc2c(c1)OCCN2c1ccc2cnc(CNC(=O)c3cc(F)c4c(c3)S(=O)(=O)[C@@H](F)CCO4)cc2n1 [Compound 198] | 17.01 | 6 nM | 103 nM
12 | COc1nc([C@@H](F)CF)ccc1-c1ccc2cnc(CNC(=O)c3cc(F)c4c(c3)S(=O)(=O)[C@@H](F)COC4)cc2n1 [Compound 46] | 20.83 | 2.3 nM | 47.7 nM
13 | [2H]C1([2H])OC([2H])([2H])[C@H](F)S(=O)(=O)c2cc(C(=O)NCc3cc4nc(N5CCOc6ccc(C(F)F)nc65)ccc4cn3)cc(F)c21 [Compound 163] | – | 5.2 nM | 116 nM
14 | COc1cccc(-c2ccc3cnc(CNC(=O)c4cc(F)c5c(c4)S(=O)(=O)[C@@H](F)COC5)cc3n2)n1 [Compound 270] | 22.02 | 8.9 nM | 174 nM
15 | O=C(NCc1cc2nc(N3CCOc4cc(N5CC(F)C5)cnc43)ccc2cn1)c1cc(F)c2c(c1)S(=O)(=O)[C@@H](F)CCO2 [Compound 139] | 24.09 | 4.7 nM | 147 nM
16 | O=C(NCc1cc2nc(N3CCOc4cc(N5CCC5)cnc43)ccc2cn1)c1cc(F)c2c(c1)S(=O)(=O)[C@@H](F)CCO2 [Compound 190] | 20.33 | 5.8 nM | 127 nM
17 | Cc1ccc(-c2ccc3cnc(CNC(=O)c4cc(F)c5c(c4)S(=O)(=O)[C@@H](F)CCO5)cc3n2)c(OC(F)F)n1 [Compound 120] | 24.03 | 4.1 nM | 98.3 nM

Row | SMILES | Ratio (BRG1 IC50 (μM) divided by BRM IC50 (μM)) (BRM) | IC50 (BRM) | IC50 (BRG-1)
18 | C[C@@H]1CCN1c1cnc2c(c1)OCCN2c1ccc2cnc(CNC(=O)c3cc(Br)c4c(c3)S(=O)(=O)[C@@H](F)CCO4)cc2n1 [Compound 299] | 29.29 | 9.9 nM | 295 nM
19 | O=C(NCc1cc2cc(-c3cncc(N4CCCC4)n3)ccc2cn1)c1cc(F)c2c(c1)S(=O)(=O)[C@@H](F)CCO2 [Compound 101] | 23.62 | 3.5 nM | 83.4 nM
20 | O=C(NCc1cc2nc(N3CCOc4cc(N5CC6CC6C5)cnc43)ccc2cn1)c1cc(F)c2c(c1)S(=O)(=O)[C@@H](F)CCO2 (some centres unmarked) [Compound 276] | 14.41 | 9.1 nM | 132 nM
21 | [2H]C([2H])([2H])Oc1nc(C(F)F)ccc1-c1ccc2cnc(CNC(=O)c3cc(F)c4c(c3)S(=O)(=O)[C@@H](F)CCO4)cc2n1 [Compound 135] | 23.88 | 4.6 nM | 110 nM
22 | CCOc1nc(C(F)F)ccc1-c1ccc2cnc(CNC(=O)c3cc(F)c4c(c3)S(=O)(=O)[C@@H](F)CCO4)cc2n1 [Compound 151] | 16.49 | 4.9 nM | 76.6 nM
23 | [2H]C1([2H])Oc2c(F)cc(C(=O)NCc3cc4nc(N5CCOc6cc(C7CC7)cnc65)ccc4cn3)cc2S(=O)(=O)[C@]([2H])(F)C1([2H])[2H] [Compound 90] | 15.80 | 3.2 nM | 51.2 nM
24 | COCc1cnc2c(c1)OCCN2c1ccc2cnc(CNC(=O)c3cc(F)c4c(c3)S(=O)(=O)[C@@H](F)CCO4)cc2n1 [Compound 224] | 15.91 | 7.1 nM | 115 nM
25 | C[C@@H]1C[C@H]1c1ccc2c(n1)N(c1ccc3cnc(CNC(=O)c4cc(F)c5c(c4)S(=O)(=O)[C@@H](F)COC5)cc3n1)CCO2 [Compound 41] | 20.00 | 2 nM | 46.4 nM
26 | C[C@@H]1CN(c2nccc(-c3ccc4cnc(CNC(=O)c5cc(F)c6c(c5)S(=O)(=O)[C@@H](F)CCO6)cc4c3)n2)C[C@H](C)O1 [Compound 16] | 10.27 | 1.5 nM | 17.8 nM
27 | O=C(NCc1cc2cc(-c3cccc(OC(F)F)n3)ccc2cn1)c1cc(Cl)c2c(c1)S(=O)(=O)[C@@H](F)COC2 [Compound 235, (2R)-6-chloro-N-[[6-[6-(difluoromethoxy)-2-pyridyl]-3-isoquinolyl]methyl]-2-fluoro-1,1-dioxo-3,5-dihydro-2H-4,1λ6-benzoxathiepine-8-carboxamide] | 23.91 | 7.4 nM | 163 nM
28 | COc1nc([C@@](C)(F)C(F)F)ccc1-c1ccc2cnc(CNC(=O)c3cc(F)c4c(c3)S(=O)(=O)[C@@H](F)COC4)cc2n1 [Compound 251] | 15.83 | 8 nM | 126 nM
29 | O=C(NCc1cc2nc(N3CCOc4cc(N5CCC[C@H](F)C5)cnc43)ccc2cn1)c1cc(F)c2c(c1)S(=O)(=O)[C@@H](F)CCO2 [Compound 286] | 20.51 | 9.6 nM | 196 nM
30 | O=C(NCc1cc2nc(N3CCOc4cc(N5CCC(F)CC5)cnc43)ccc2cn1)c1cc(F)c2c(c1)S(=O)(=O)[C@@H](F)CCO2 [Compound 204] | 11.71 | 6.1 nM | 71.7 nM
31 | C[C@@H]1CN(c2cccc(/C=C/c3ccnc(CNC(=O)c4cc(F)c5c(c4)S(=O)(=O)[C@@H](F)CCO5)c3)n2)C[C@H](C)O1 [Compound 52, (R)—N-((4-((E)-2-(6-((2S,6R)-2,6-dimethylmorpholino)pyridin-2-yl)vinyl)pyridin-2-yl)methyl)-4,9-difluoro-3,4-dihydro-2H-benzo[b][1,4]oxathiepine-7-carboxamide 5,5-dioxide] | 22.78 | 2.5 nM | 56 nM
32 | C[C@@H]1CCN1c1cnc2c(c1)OCCN2c1ccc2cnc(CNC(=O)c3cc(Cl)c4c(c3)S(=O)(=O)[C@@H](F)CCO4)cc2n1 [Compound 165] | 22.18 | 5.3 nM | 143 nM
33 | O=C(NCc1cc2nc(N3CCOc4cc(C(F)F)cnc43)ccc2cn1)c1cc(F)c2c(c1)S(=O)(=O)[C@@H](F)CCO2 [Compound 159] | 14.72 | 5.1 nM | 100 nM
